According to US10576062B2, “Carbamoyloxymethyl triazole cyclohexyl acids as LPA antagonists” (Bristol-Myers Squibb Company, priority 2016, dated 2020):

Biological target: T1, human LPA1 (Homo sapiens, UniProt Q92633)
T1 construct: expressed in transfected cells; host or cells: Chinese hamster ovary (CHO) cells
Assay: LPA1 functional antagonist assay (LPA-induced calcium flux)
Assay type: cell-based
Settings: read-out: hLPA1 IC50
Method in brief: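 CHO cells overexpressing human LPA1, loaded with calcium dye 30 min at 37° C, were preincubated 20 min at room temperature with compound (0.08 nM–5 μM, 0.5% DMSO) in HBSS/20 mM HEPES/0.1% fatty acid-free BSA.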

T1 sequence (Q92633 whole entry): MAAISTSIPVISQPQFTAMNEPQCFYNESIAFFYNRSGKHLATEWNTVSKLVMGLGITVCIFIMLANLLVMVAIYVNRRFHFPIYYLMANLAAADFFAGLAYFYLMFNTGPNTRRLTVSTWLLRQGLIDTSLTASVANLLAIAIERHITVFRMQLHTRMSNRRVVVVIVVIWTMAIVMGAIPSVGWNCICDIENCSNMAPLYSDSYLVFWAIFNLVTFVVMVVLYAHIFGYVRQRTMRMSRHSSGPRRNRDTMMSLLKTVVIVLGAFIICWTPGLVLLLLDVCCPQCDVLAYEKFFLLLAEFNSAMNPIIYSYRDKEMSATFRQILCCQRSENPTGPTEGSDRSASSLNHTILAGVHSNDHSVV

Compound	IC50
CN(C(=O)OCc1c(-c2ccc(O[C@H]3CCC[C@H](C(=O)O)C3)cn2)nnn1C)C1(C)CC1 [Example 79, (1S,3S)-3-((6-(1-methyl-5-(((methyl(1-methylcyclopropyl)carbamoyl)oxy)methyl)-1H-1,2,3-triazol-4-yl)pyridin-3-yl)oxy)cyclohexane-1-carboxylic acid]	45 nM
CN(C(=O)OCc1c(-c2ccc(O[C@H]3CCC[C@H](C(=O)O)C3)cn2)nnn1C)C(C1CC1)C1CC1 [Example 80, (1S,3S)-3-((6-(5-((((Dicyclopropylmethyl)(methyl)carbamoyl)oxy)methyl)-1-methyl-1H-1,2,3-triazol-4-yl)pyridin-3-yl)oxy)cyclohexanecarboxylic acid]	60 nM
CCCC1(N(C)C(=O)OCc2c(-c3ccc(O[C@H]4CCC[C@H](C(=O)O)C4)cn3)nnn2C)CC1 [Example 81, (1S,3S)-3-((6-(1-methyl-5-(((methyl(1-propylcyclopropyl)carbamoyl)oxy)methyl)-1H-1,2,3-triazol-4-yl)pyridin-3-yl)oxy)cyclohexane-1-carboxylic acid]	61 nM
[2H]C([2H])([2H])n1nnc(-c2ccc(O[C@H]3CCC[C@H](C(=O)O)C3)cn2)c1COC(=O)N(C)CC1CCC1 [Example 82, (1S,3S)-3-((6-(5-((((cyclobutylmethyl)(methyl)carbamoyl)oxy)methyl)-1-(methyl-d3)-1H-1,2,3-triazol-4-yl)pyridin-3-yl)oxy)cyclohexane-1-carboxylic acid]	28 nM
CCC(CC)N(C)C(=O)OCc1c(-c2ccc(O[C@H]3CCC[C@H](C(=O)O)C3)c(C)n2)nnn1C [Example 83, (1S,3S)-3-((2-Methyl-6-(1-methyl-5-(((methyl(pentan-3-yl)carbamoyl)oxy)methyl)-1H-1,2,3-triazol-4-yl)pyridin-3-yl)oxy)cyclohexanecarboxylic acid]	92 nM
CCCC(C)(C)N(C)C(=O)OCc1c(-c2ccc(O[C@H]3CCC[C@H](C(=O)O)C3)c(C)n2)nnn1C [Example 84, (1S,3S)-3-((2-methyl-6-(1-methyl-5-(((methyl(2-methylpentan-2-yl)carbamoyl)oxy)methyl)-1H-1,2,3-triazol-4-yl)pyridin-3-yl)oxy)cyclohexanecarboxylic acid]	69 nM
Cc1nc(-c2nnn(C)c2COC(=O)N(C)C(C2CC2)C2CC2)ccc1O[C@H]1CCC[C@H](C(=O)O)C1 [Example 86, (1S,3S)-3-((6-(5-((((Dicyclopropylmethyl)(methyl)carbamoyl)oxy)methyl)-1-methyl-1H-1,2,3-triazol-4-yl)-2-methylpyridin-3-yl)oxy)cyclohexanecarboxylic acid]	54 nM
CCCC1(N(C)C(=O)OCc2c(-c3ccc(O[C@H]4CCC[C@H](C(=O)O)C4)c(C)n3)nnn2C)CC1 [Example 87, (1S,3S)-3-((2-methyl-6-(1-methyl-5-(((methyl(1-propylcyclopropyl)carbamoyl)oxy)methyl)-1H-1,2,3-triazol-4-yl)pyridin-3-yl)oxy)cyclohexane-1-carboxylic acid]	36 nM
CC(OC(=O)N(C)C1CCCC1)c1c(-c2ccc(O[C@H]3CCC[C@H](C(=O)O)C3)cc2)nnn1C (stereo partly drawn) [Example 94, (1S,3S)-3-(4-(5-(1-((cyclopentyl(methyl)carbamoyl)oxy)ethyl)-1-methyl-1H-1,2,3-triazol-4-yl)phenoxy)cyclohexane-1-carboxylic acid]	241 nM
Cc1nc(-c2nnn(C)c2COC(=O)N(C)Cc2ccccc2F)ccc1O[C@H]1CCC[C@H](C(=O)O)C1 [Example 98, (1S,3S)-3-((6-(5-((((2-fluorobenzyl)(methyl)carbamoyl)oxy)methyl)-1-methyl-1H-1,2,3-triazol-4-yl)-2-methylpyridin-3-yl)oxy)cyclohexane-1-carboxylic acid]	19 nM
Cc1nc(-c2nnn(C)c2COC(=O)N(C)C2(c3ccccc3)CC2)ccc1O[C@H]1CCC[C@H](C(=O)O)C1 [Example 100, (1S,3S)-3-((2-methyl-6-(1-methyl-5-(((methyl(1-phenylcyclopropyl)carbamoyl)oxy)methyl)-1H-1,2,3-triazol-4-yl)pyridin-3-yl)oxy)cyclohexane-1-carboxylic acid]	70 nM
Cc1nc(-c2nnn(C)c2COC(=O)N(C)CCc2ccccc2)ccc1O[C@H]1CCC[C@H](C(=O)O)C1 [Example 103, (1S,3S)-3-((2-methyl-6-(1-methyl-5-(((methyl(phenethyl)carbamoyl)oxy)methyl)-1H-1,2,3-triazol-4-yl)pyridin-3-yl)oxy)cyclohexane-1-carboxylic acid]	119 nM
CCCN(C)C(=O)OCc1c(-c2ccc(O[C@H]3CCC[C@H](C(=O)O)C3)c(C)n2)nnn1C [Example 104, (1S,3S)-3-((2-methyl-6-(1-methyl-5-(((methyl(propyl)carbamoyl)oxy)methyl)-1H-1,2,3-triazol-4-yl)pyridin-3-yl)oxy)cyclohexane-1-carboxylic acid]	19 nM
Cc1nc(-c2nnn(C)c2COC(=O)NCC2CCC2)ccc1O[C@H]1CCC[C@H](C(=O)O)C1 [Example 108, (1S,3S)-3-((6-(5-((((cyclobutylmethyl)carbamoyl)oxy)methyl)-1-methyl-1H-1,2,3-triazol-4-yl)-2-methylpyridin-3-yl)oxy)cyclohexane-1-carboxylic acid]	108 nM
[2H]C([2H])([2H])n1nnc(-c2ccc(O[C@H]3CCC[C@H](C(=O)O)C3)cn2)c1COC(=O)N(C)CC1CC1 [Example 110, (1S,3S)-3-((6-(5-((((cyclopropylmethyl)(methyl)carbamoyl)oxy)methyl)-1-(methyl-d3)-1H-1,2,3-triazol-4-yl)pyridin-3-yl)oxy)cyclohexane-1-carboxylic acid]	31 nM
[2H]C([2H])([2H])n1nnc(-c2ccc(O[C@H]3CCC[C@H](C(=O)O)C3)cn2)c1COC(=O)N(C)C1CCCC1 [Example 111, (1S,3S)-3-((6-(5-(((cyclopentyl(methyl)carbamoyl)oxy)methyl)-1-(methyl-d3)-1H-1,2,3-triazol-4-yl)pyridin-3-yl)oxy)cyclohexane-1-carboxylic acid]	23 nM
[2H]C([2H])([2H])n1nnc(-c2ccc(O[C@H]3CCC[C@H](C(=O)O)C3)cn2)c1COC(=O)N(C)CCCC [Example 112, (1S,3S)-3-((6-(5-(((butyl(methyl)carbamoyl)oxy)methyl)-1-(methyl-d3)-1H-1,2,3-triazol-4-yl)pyridin-3-yl)oxy)cyclohexane-1-carboxylic acid]	17 nM
CCN(CC1CCC1)C(=O)OCc1c(-c2ccc(O[C@H]3CCC[C@H](C(=O)O)C3)c(C)n2)nnn1C [Example 113, (1S,3S)-3-((6-(5-((((cyclobutylmethyl)(ethyl)carbamoyl)oxy)methyl)-1-methyl-1H-1,2,3-triazol-4-yl)-2-methylpyridin-3-yl)oxy)cyclohexane-1-carboxylic acid]	15 nM
Cc1nc(-c2nnn(C)c2COC(=O)N(C)CC(C)C)ccc1O[C@H]1CCC[C@H](C(=O)O)C1 [Example 116, (1S,3S)-3-((6-(5-(((isobutyl(methyl)carbamoyl)oxy)methyl)-1-methyl-1H-1,2,3-triazol-4-yl)-2-methylpyridin-3-yl)oxy)cyclohexane-1-carboxylic acid]	29 nM

Further compounds by falling IC50, results first:

IC50	Compound
643 nM	Cc1nc(-c2nnn(C)c2COC(=O)N2CCOCC2)ccc1O[C@H]1CCC[C@H](C(=O)O)C1 [Example 114, (1S,3S)-3-((2-methyl-6-(1-methyl-5-(((morpholine-4-carbonyl)oxy)methyl)-1H-1,2,3-triazol-4-yl)pyridin-3-yl)oxy)cyclohexane-1-carboxylic acid]
576 nM	Cc1nc(-c2nnn(C)c2COC(=O)NC23CC(C2)C3)ccc1O[C@H]1CCC[C@H](C(=O)O)C1 [Example 105, (1S,3S)-3-((6-(5-(((bicyclo[1.1.1]pentan-1-ylcarbamoyl)oxy)methyl)-1-methyl-1H-1,2,3-triazol-4-yl)-2-methylpyridin-3-yl)oxy)cyclohexane-1-carboxylic acid]
58 nM	Cc1nc(-c2nnn(C)c2COC(=O)N(C)C2(C)CC2)ccc1O[C@H]1CCC[C@H](C(=O)O)C1 [Example 85, (1S,3S)-3-((2-methyl-6-(1-methyl-5-(((methyl(1-methylcyclopropyl)carbamoyl)oxy)methyl)-1H-1,2,3-triazol-4-yl)pyridin-3-yl)oxy)cyclohexane-1-carboxylic acid]
53 nM	Cc1nc(-c2nnn(C)c2COC(=O)N(C)C23CC(C2)C3)ccc1O[C@H]1CCC[C@H](C(=O)O)C1 [Example 102, (1S,3S)-3-((6-(5-(((bicyclo[1.1.1]pentan-1-yl(methyl)carbamoyl)oxy)methyl)-1-methyl-1H-1,2,3-triazol-4-yl)-2-methylpyridin-3-yl)oxy)cyclohexane-1-carboxylic acid]
49 nM	Cc1nc(-c2nnn(C)c2COC(=O)N(C)CCC(F)(F)F)ccc1O[C@H]1CCC[C@H](C(=O)O)C1 [Example 101, (1S,3S)-3-((2-methyl-6-(1-methyl-5-(((methyl(3,3,3-trifluoropropyl)carbamoyl)oxy)methyl)-1H-1,2,3-triazol-4-yl)pyridin-3-yl)oxy)cyclohexane-1-carboxylic acid]
47 nM	CCC(CC)N(C)C(=O)OCc1c(-c2ccc(O[C@H]3CCC[C@H](C(=O)O)C3)cc2)nnn1C [Example 76, (1S,3S)-3-(4-(1-methyl-5-(((methyl(pentan-3-yl)carbamoyl)oxy)methyl)-1H-1,2,3-triazol-4-yl)phenoxy)cyclohexane-1-carboxylic acid]
27 nM	CCCC(C)(C)N(C)C(=O)OCc1c(-c2ccc(O[C@H]3CCC[C@H](C(=O)O)C3)cn2)nnn1C [Example 78, (1S,3S)-3-((6-(1-methyl-5-(((methyl(2-methylpentan-2-yl)carbamoyl)oxy)methyl)-1H-1,2,3-triazol-4-yl)pyridin-3-yl)oxy)cyclohexane-1-carboxylic acid]
18 nM	Cc1nc(-c2nnn(C)c2COC(=O)N(C)CC2CC2)ccc1O[C@H]1CCC[C@H](C(=O)O)C1 [Example 115, (1S,3S)-3-((6-(5-((((cyclopropylmethyl)(methyl)carbamoyl)oxy)methyl)-1-methyl-1H-1,2,3-triazol-4-yl)-2-methylpyridin-3-yl)oxy)cyclohexane-1-carboxylic acid]
